The subject of series [1] is A549 cells. In words: competition cell experiment: inhibition of the uptake of 4R/S-[F-18]F-L-glutamic acid (tracer). Format: cell-based, human. The conditions noted are these: for % Tracer uptake: A549 cells, 10 min of incubation with 0.250 MBq of 4R/S-[F-18]F-L-Glu in PBS buffer, competitor concentration 1 mM, control = 100.0; for inhibition of tracer uptake: competitor 1 mM, tracer 4R/S-[F-18]F-L-glutamic acid. As for the experimental part: The uptake of the glutamic acid derivatives according to the invention into tumour cells was investigated in cell experiments. Here, the uptake of a radiolabelled glutamic acid derivative (4R/S—[F-18]F-L-glutamic acid) was examined in the presence of the compounds according to the invention (competition experiments). The compounds according to the invention were employed in excess (1 mM) over 4R/S—[F-18]F-L-glutamic acid (tracer).
FIG. 1: graphic representation of the inhibition of the cellular uptake of 4R/S—[F-18]F-L-Glu by compounds according to the invention branched in the 4-position in A549 cells (human non-small-cell bronchial carcinoma) after 10 min of incubation.

Series [2] deals with rats bearing H460 tumours. In words: PET imaging in rats bearing H460 tumours. The class given is in vivo. As for the experimental part: (§1) (2S,4S)-2-Amino-4-(6-[F-18]fluorohexyl)pentanedioic acid was studied in rats bearing H460 tumours using PET imaging and subsequent organ distribution.
(§2) The highest enrichment at 0.52% of the injected dose per g in the tumour was measured at a time of 100 min after injection. […] Thus, in these organs, an uptake of 0.36% ID/g and 0.20% ID/g, respectively, was observed after 100 min. Uptake into the bones was 0.43% ID/g.
60 min after i.v. administration of 15 MBq of (2S,4S)-2-amino-4-(6-[F-18]fluorohexyl)pentanedioic acid to rats bearing H460 tumours, data acquisition with a PET scanner (Inveon) was started for 30 minutes.
FIG. 3. PET study of 60 to 90 min after injection of (2S,4S)-2-amino-4-(6-[F-18]fluorohexyl)pentanedioic acid into mice bearing H460 tumours (analysis of sections)
FIG. 4. PET study of 60 to 90 min after injection of (2S,4S)-2-amino-4-(6-[F-18]fluorohexyl)pentanedioic acid into mice bearing H460 tumours (whole body imaging)

The subject of series [3] is A460 tumour cells. In words: cellular uptake of the F-18-labelled compound in tumour cells. Format: cell-based, human. As to conditions: for uptake, % of the dose per 100 000 cells: after 30 min of incubation. The text has this: Following labelling with F-18, (4S)-4-(6-[F-18]fluorohexyl)-L-Glu was examined in cell experiments with A460 tumour cells (human non-small-cell bronchial carcinoma).

The subject of series [4] is rats bearing H460 tumours. In words: organ distribution after i.v. administration to animals bearing H460 tumours. The class given is in vivo. As to conditions: 100 min after i.v. administration of 15 MBq. Here is the method:
as §1, §2

Where [5] appears, read: PET 60-90 min after i.v. administration of 15 MBq.

Where only a bound is given, the exact number is not on record here.

On to `N[C@@H](C[C@H](O)C(=O)O)C(=O)O` [(4S)-hydroxy-Glu], for which the “% Tracer uptake” value in series [1] was found to be 13.2%.
`N[C@@H](C[C@H](CCCF)C(=O)O)C(=O)O` [(4S)-4-(3-fluoropropyl)-Glu]: in series [1], the “% Tracer uptake” value is on record as 5.4%.
Consider `N[C@@H](C[C@H](CCCCCCF)C(=O)O)C(=O)O` [(4S)-4-(6-fluorohexyl)-Glu, (2S,4S)-2-Amino-4-(6-fluorohexyl)pentanedioic acid], for which, in series [1], the “% Tracer uptake” value amounted to 6.3% and the “inhibition of tracer uptake” value was 94%.
For `C[C@@H](C[C@H](N)C(=O)O)C(=O)O` [(4S)-methyl-Glu], the “% Tracer uptake” value in series [1] worked out at 7.7%.
As for `NC(CC(OC1CC(F)C1)C(=O)O)C(=O)O` [(4S)-4-(3-fluorocyclobutoxy)-Glu, 2-Amino-4-(3-fluorocyclobutoxy)pentanedioic acid], in series [1], the “% Tracer uptake” value is 5.7% and the “inhibition of tracer uptake” value is reported as > 90%.
`N[C@@H](C[C@H](CCCCCC[18F])C(=O)O)C(=O)O` [(2S,4S)-2-Amino-4-(6-[F-18]fluorohexyl)pentanedioic acid]: in series [2] (setting [5]), the “PET image analysis: enrichment in the remainder of the body” value is on record as “low enrichment” and the “PET image analysis: uptake into the H460 tumour” value is reported as “high uptake”. For the same compound, the “PET study: uptake or excretion in the kidneys or pancreas” value in series [2] (PET study) was “transient uptake or excretion”. The “uptake, % of the dose per 100 000 cells” value in series [3] (listed as 4-(6-[F-18]fluorohexyl)-L-Glu) is on record as 11.2 % of the dose per 100 000 cells. Further, in series [3] (listed as (4S)-4-(6-[F-18]fluorohexyl)-L-Glu), the “uptake, % of the dose per 100 000 cells” value was 11.2 % of the dose per 100 000 cell. In series [3] (tumour cells, F-18-labelled compound), the “time course of cellular uptake” value is recorded as “time-dependent cellular uptake”. Also, in series [4] (H460 tumour), the “% ID/g Tumour” value is reported as 0.52 % ID/g. In series [4] (H460 tumour bearing animals), the “% ID/g Blood” value turned out to be 0.04 % ID/g, the “% ID/g Bones” value is recorded as 0.43 % ID/g, the “% ID/g Kidney” value is 0.36 % ID/g and the “% ID/g Liver” value is listed as 0.08 % ID/g. In series [4] (H460 tumour bearing animals), the “% ID/g Muscle” value turned out to be 0.02 % ID/g and the “% ID/g Pancreas” value is 0.20 % ID/g.
With `NC(CC(F)C(=O)O)C(=O)O` (racemic) [4-(R/S)-fluoro-D/L-Glu], the “% Tracer uptake” value in series [1] is 16.3%.
As to `N[C@@H](CCC(=O)O)C(=O)O` [L-Glu, L-configured glutamic acid], in series [1], the “% Tracer uptake” value is 12.6% and the “inhibition of tracer uptake” value turned out to be 87%.

The record behind these values is US20110104057A1, “Novel [F-18]-labelled L-glutamic acid and L-glutamine derivatives (II), their use and processes for their preparation” (BAYER SCHERING PHARMA AKTIENGESELLSCHAFT, priority 2008, published 2011).
